Measurements from US12187758B2 (ROME Therapeutics, Inc., priority 2022, dated 2025).

Legend:
Assay type in all cases: cell-based
[1] = tested on: SDH-A (succinate dehydrogenase-A); assay: Mitochondria toxicity assay with PC3 cells, in-cell ELISA SDH-A; conditions: 5 days treatment
How it was run: (§1)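 This in-cell ELISA was run on fixed, permeabilized PC3 cells after 5-day exposure to titrated compound, with cytotoxicity measured on a duplicate plate. Results are reported as categories A (<1.0 μM) to E (>100.0 μM).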

PC3 cells = assay: Mitochondria toxicity assay with PC3 cells, cytotoxicity (Cell Titer Glo); conditions: Homo sapiens, PC-3, 120 h, 5 days treatment
How it was run: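 Cytotoxicity reported in μM bins, A <1.0 through E >100.0. Measured via Cell Titer Glo luminescence (30 min, room temperature) after 5-day dose-titration treatment of PC3 cells, grown in F-12K/10% FBS, at 37° C, 5% CO2.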

[2] = Mitochondria toxicity assay with PC3 cells, in-cell ELISA COX-1; conditions: 5 days treatment
How it was run: as §1

THP1-Dual KO-TREX1 cells = assay: THP1 TREX1 KO inhibition assay (type 1 interferon response); conditions: Homo sapiens, 144 h, type 1 interferon (QUANTI-LUC), 1 μM 5-aza-2′-deoxycytidine, six days
How it was run: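 THP1-Dual KO-TREX1 cells were treated with a dose titration of compound, alone or with 1 μM 5-aza-2′-deoxycytidine, for six days at 37 °C. Type 1 interferon was read as secreted luciferase (QUANTI-LUC) in the supernatant, and viability by CellTiter-Glo luminescence.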

Row | SMILES | IC50 [1] [µM] | IC50 (PC3 cells) [µM] | IC50 [2] [µM] | IC50 (THP1-Dual KO-TREX1 cells) [µM]
1 | Nc1ccn([C@@H]2O[C@@](CO)(CF)[C@@H](O)[C@@H]2F)c(=O)n1 [Compound 113, 4-amino-1-((2R,3S,4R,5R)-3-fluoro-5-(fluoromethyl)-4-hydroxy-5-(hydroxymethyl)-tetrahydrofuran-2-yl)pyrimidin-2(1H)-one] | < 1 | < 1 | < 1 | > 1
2 | Nc1ccn([C@@H]2O[C@@](CO)(CCl)[C@@H](O)[C@@H]2O)c(=O)n1 [Compound 114, 4-amino-1-((2R,3S,4S,5R)-5-(chloromethyl)-3,4-dihydroxy-5-(hydroxymethyl)tetrahydro-furan-2-yl)pyrimidin-2(1H)-one] | > 100 | > 100 | > 100 | > 1
3 | CC[C@]1(CO)O[C@@H](n2cnc3c(=O)[nH]c(N)nc32)C[C@@H]1O [Compound 115, 2-amino-9-((2R,4S,5R)-5-ethyl-4-hydroxy-5-(hydroxymethyl)tetrahydro-furan-2-yl)-1,9-dihydro-6H-purin-6-one] | 1 to 10 | 1 to 10 | 1 to 10 | > 1
4 | Nc1ccn([C@@H]2O[C@@](CO)(CCl)[C@@H](O)C2(F)F)c(=O)n1 [Compound 119, 4-amino-1-((2R,4R,5R)-5-(chloromethyl)-3,3-difluoro-4-hydroxy-5-(hydroxymethyl)tetrahydrofuran-2-yl)pyrimidin-2(1H)-one] | 1 to 10 | 1 to 10 | 1 to 10 | > 1
5 | Nc1nc(=O)n([C@H]2C[C@H](O)[C@](CO)(C3CC3)O2)cc1F [Compound 120, 4-amino-1-[(2R,4S,5R)-5-cyclopropyl-4-hydroxy-5-(hydroxymethyl)oxolan-2-yl]-5-fluoropyrimidin-2-one] | > 100 | > 100 | > 100 | > 1
6 | Nc1ccn([C@@H]2O[C@@](CO)(C3CC3)[C@@H](O)[C@@H]2F)c(=O)n1 [Compound 121, 4-amino-1-[(2R,3S,4R,5R)-5-cyclopropyl-3-fluoro-4-hydroxy-5-(hydroxymethyl)oxolan-2-yl] pyrimidin-2-one] | > 100 | > 100 | > 100 | > 1
7 | Nc1nc(=O)n([C@@H]2O[C@@](CO)(C3CC3)[C@@H](O)[C@@H]2F)cc1F [Compound 122, 4-amino-1-[(2R,3S,4R,5R)-5-cyclopropyl-3-fluoro-4-hydroxy-5-(hydroxymethyl)oxolan-2-yl]-5-fluoropyrimidin-2-one] | > 100 | > 100 | > 100 | > 1
8 | Nc1nc(=O)n([C@@H]2O[C@](/C=C\F)(CO)[C@@H](O)[C@@H]2F)cc1F [Compound 123, 4-amino-5-fluoro-1-((2R,3S,4R,5R)-3-fluoro-5-((Z)-2-fluorovinyl)-4-hydroxy-5-(hydroxymethyl)tetrahydrofuran-2-yl)pyrimidin-2(1H)-one] | > 100 | > 100 | > 100 | > 1
9 | Nc1nc(=O)n([C@@H]2O[C@](/C=C/Cl)(CO)[C@@H](O)[C@@H]2F)cc1F [Compound 131, 4-amino-1-[(2R,3S,4R,5R)-5(E)-(2-chloroethenyl)-3-fluoro-4-hydroxy-5-(hydroxymethyl)oxolan-2-yl]-5-fluoropyrimidin-2-one] | > 100 | > 100 | > 100 | > 1
10 | Nc1nc(=O)n([C@@H]2O[C@@](CO)(CCl)[C@@H](O)[C@@H]2Cl)cc1F [Compound 137, 4-amino-1-[(2R,3S,4R,5R)-3-chloro-5-(chloromethyl)-4-hydroxy-5-(hydroxymethyl)oxolan-2-yl]-5-fluoropyrimidin-2-one] | > 100 | > 100 | > 100 | > 1
11 | C=C=C[C@]1(CO)O[C@@H](n2cnc3c(N)nc(F)nc32)C[C@@H]1O [Compound 164, (2R,3S,5R)-5-(6-amino-2-fluoropurin-9-yl)-2-(hydroxymethyl)-2-(propa-1,2-dien-1-yl) oxolan-3-ol] | > 100 | > 100 | > 100 | > 1
